# Measurements published in ChEMBL document CHEMBL1137492, “Phenylethyl-substituted pyrimido[2,1-f]purinediones and related compounds: structure-activity relationships as adenosine A(1) and A(2A) receptor ligands” (Bioorg Med Chem, 2007).
# Tests used:
# Adenosine receptor A3 [1] = molecular target: T1, Adenosine receptor A3 (Homo sapiens, UniProt P0DMS8); experiment: (§1) Displacement of [3H]PSB11 from human adenosine A3 receptor expressed in CHO cells at 10 uM; type: cell-based
# T1 sequence (P0DMS8 whole entry): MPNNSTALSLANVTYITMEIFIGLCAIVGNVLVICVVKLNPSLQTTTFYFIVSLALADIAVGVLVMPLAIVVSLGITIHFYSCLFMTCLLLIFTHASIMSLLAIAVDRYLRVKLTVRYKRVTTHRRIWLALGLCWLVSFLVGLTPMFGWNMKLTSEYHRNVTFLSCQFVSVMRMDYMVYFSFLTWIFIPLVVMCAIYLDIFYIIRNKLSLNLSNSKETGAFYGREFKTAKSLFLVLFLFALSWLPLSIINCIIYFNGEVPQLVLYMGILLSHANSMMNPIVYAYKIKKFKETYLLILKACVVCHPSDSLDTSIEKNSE
# [2] = molecular target: T2, Adenosine receptor A2b (Homo sapiens) (UniProt P29275); experiment: Displacement of [3H]ZM-241385 from human adenosine A2B receptor expressed in CHO cells at 10 uM; type: cell-based
# T2 sequence (whole entry): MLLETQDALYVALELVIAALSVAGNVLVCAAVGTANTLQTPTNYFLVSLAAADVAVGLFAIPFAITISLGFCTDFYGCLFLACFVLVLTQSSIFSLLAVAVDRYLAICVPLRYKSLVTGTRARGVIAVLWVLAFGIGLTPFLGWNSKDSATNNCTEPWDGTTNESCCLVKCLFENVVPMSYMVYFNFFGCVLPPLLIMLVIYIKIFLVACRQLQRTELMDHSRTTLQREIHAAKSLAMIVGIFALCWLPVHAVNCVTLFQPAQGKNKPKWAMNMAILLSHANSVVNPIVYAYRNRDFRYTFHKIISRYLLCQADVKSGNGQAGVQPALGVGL
# Adenosine receptor A2b = molecular target: T3, Adenosine receptor A2b (Homo sapiens, UniProt P29275); experiment: Displacement of [3H]ZM-241385 from human adenosine A2B receptor expressed in CHO cells; type: cell-based
# T3 sequence (P29275 whole entry): T2 sequence (whole entry)
# Adenosine receptor A3 [3] = molecular target: T1, Adenosine receptor A3; experiment: Displacement of [3H]PSB11 from human adenosine A3 receptor expressed in CHO cells; type: cell-based
# [4] = molecular target: T4, Adenosine receptor A1 (Homo sapiens) (UniProt P30542); experiment: Displacement of [3H]CCPA from human adenosine A1 receptor expressed in CHO cells at 25 uM; type: cell-based
# T4 sequence (whole entry): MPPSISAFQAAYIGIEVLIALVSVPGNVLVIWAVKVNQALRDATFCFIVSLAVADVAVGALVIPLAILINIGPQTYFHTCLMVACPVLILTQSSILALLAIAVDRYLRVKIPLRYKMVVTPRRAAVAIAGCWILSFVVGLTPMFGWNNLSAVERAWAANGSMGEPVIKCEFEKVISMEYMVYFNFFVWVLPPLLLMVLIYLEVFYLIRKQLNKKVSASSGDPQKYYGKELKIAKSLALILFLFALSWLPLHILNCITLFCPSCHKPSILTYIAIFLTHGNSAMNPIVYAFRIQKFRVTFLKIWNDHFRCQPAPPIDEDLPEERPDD
# Adenosine receptor A2a [5] = molecular target: Adenosine receptor A2a (Rattus norvegicus, UniProt P30543)
# Adenosine receptor A2a [6] = molecular target: Adenosine receptor A2a (Homo sapiens, UniProt P29274); experiment: Displacement of [3H]MSX2 from human adenosine A2A receptor expressed in CHO cells; type: cell-based
# Mus musculus [7] = experiment: Toxicity in Albino F1 mouse assessed as tonic extension followed by death at 30 mg/kg after 0.5 hrs; type: organism-based; design: dose 30 mg/kg; conditions: in vivo
# [8] = molecular target: Adenosine receptor A1 (Rattus norvegicus) (UniProt P25099); experiment: Displacement of [3H]CCPA from adenosine A1 receptor in rat brain cortical membrane at 25 uM
# Adenosine receptor A1 [9] = molecular target: T5, Adenosine receptor A1 (Rattus norvegicus, UniProt P25099); experiment: Displacement of [3H]CCPA from adenosine A1 receptor in rat brain cortical membrane; type: cell membranes
# T5 sequence (P25099 whole entry): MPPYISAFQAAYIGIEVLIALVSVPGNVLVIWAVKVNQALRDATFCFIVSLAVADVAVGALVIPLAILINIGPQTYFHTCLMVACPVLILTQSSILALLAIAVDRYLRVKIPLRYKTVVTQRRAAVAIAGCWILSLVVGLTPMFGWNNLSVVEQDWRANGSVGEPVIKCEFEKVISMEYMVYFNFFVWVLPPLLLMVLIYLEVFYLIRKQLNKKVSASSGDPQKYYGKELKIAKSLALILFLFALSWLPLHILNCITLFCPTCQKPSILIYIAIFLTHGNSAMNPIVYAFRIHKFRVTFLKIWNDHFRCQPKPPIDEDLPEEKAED
# Adenosine receptor A1 [10] = molecular target: T6, Adenosine receptor A1 (Homo sapiens, UniProt P30542); experiment: Displacement of [3H]CCPA from human adenosine A1 receptor expressed in CHO cells; type: cell-based
# T6 sequence (P30542 whole entry): T4 sequence (whole entry)
# Mus musculus [11] = experiment: Toxicity in Albino F1 mouse assessed as death following tonic extension at 300 mg/kg after 0.5 hrs; conditions: in vivo
# [12] = molecular target: Adenosine receptor A2a (Rattus norvegicus) (UniProt P30543); experiment: Displacement of [3H]MSX2 from adenosine A2A receptor in rat brain striatal membrane at 10 uM; type: cell membranes
# [13] = molecular target: Adenosine receptor A1 (Rattus norvegicus) (UniProt P25099); experiment: Displacement of [3H]CCPA from adenosine A1 receptor in rat brain cortical membrane at 10 uM
# Mus musculus [14] = experiment: Toxicity in Albino F1 mouse assessed as tonic extension followed by death at 300 mg/kg after 0.5 hrs; type: organism-based; design: dose 300 mg/kg; conditions: in vivo
# Mus musculus [15] = experiment: Toxicity in Albino F1 mouse assessed as continuous seizure followed by death at 100 mg/kg after 0.5 hrs; type: organism-based; design: dose 100 mg/kg; conditions: in vivo
# [16] = molecular target: T7, Adenosine receptor A3 (Homo sapiens) (UniProt P0DMS8); experiment: as §1; type: cell-based
# T7 sequence (whole entry): T1 sequence (P0DMS8 whole entry)
# [17] = molecular target: Adenosine receptor A2a (Rattus norvegicus) (UniProt P30543); experiment: Displacement of [3H]MSX2 from adenosine A2A receptor in rat brain striatal membrane at 25 uM; type: cell membranes
# Mus musculus [18] = experiment: Toxicity in Albino F1 mouse assessed as continuous seizure at 100 mg/kg after 0.5 hrs; type: organism-based; design: dose 100 mg/kg; conditions: in vivo
# [19] = molecular target: T2, Adenosine receptor A2b (Homo sapiens); experiment: Displacement of [3H]PSB298 from human adenosine A2B receptor expressed in CHO cells at 10 uM; type: cell-based
# Sequence of Adenosine receptor A2a (Rattus norvegicus) (P30543 whole entry): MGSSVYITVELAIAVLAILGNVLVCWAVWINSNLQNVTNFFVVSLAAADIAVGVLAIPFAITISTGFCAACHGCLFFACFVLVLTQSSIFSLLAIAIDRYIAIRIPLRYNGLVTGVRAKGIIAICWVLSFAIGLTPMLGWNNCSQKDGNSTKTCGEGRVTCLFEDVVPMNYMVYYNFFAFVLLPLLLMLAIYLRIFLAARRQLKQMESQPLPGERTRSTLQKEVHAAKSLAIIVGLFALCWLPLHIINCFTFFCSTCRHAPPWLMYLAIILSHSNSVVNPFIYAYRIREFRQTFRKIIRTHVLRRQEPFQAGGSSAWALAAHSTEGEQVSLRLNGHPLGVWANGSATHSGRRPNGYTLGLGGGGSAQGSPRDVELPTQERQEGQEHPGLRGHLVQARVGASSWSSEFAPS
# Sequence of Adenosine receptor A2a (Rattus norvegicus, UniProt P30543) (P30543 whole entry): as above
# Sequence of Adenosine receptor A2a (Homo sapiens, UniProt P29274) (P29274 whole entry): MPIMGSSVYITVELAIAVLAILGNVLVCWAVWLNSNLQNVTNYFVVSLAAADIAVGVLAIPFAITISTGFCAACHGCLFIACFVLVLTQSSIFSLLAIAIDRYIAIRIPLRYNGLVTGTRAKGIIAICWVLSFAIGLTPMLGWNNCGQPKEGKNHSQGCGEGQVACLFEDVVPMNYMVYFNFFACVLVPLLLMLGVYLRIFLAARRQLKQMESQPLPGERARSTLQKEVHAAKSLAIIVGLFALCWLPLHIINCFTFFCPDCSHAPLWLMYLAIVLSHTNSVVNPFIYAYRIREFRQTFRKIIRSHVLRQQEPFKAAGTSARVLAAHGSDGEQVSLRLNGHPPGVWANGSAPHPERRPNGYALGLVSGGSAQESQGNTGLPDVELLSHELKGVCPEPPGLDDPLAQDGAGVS
compound,measurement,setting,value
Cn1c(=O)c2c(nc3n2CCCN3CCc2ccccc2)n(C)c1=O,Inhibition,Adenosine receptor A3 [1],20%
same,Activity,[2],57%
same,Ki,Adenosine receptor A2b,10 µM
same,Ki,Adenosine receptor A3 [3],> 10 µM
same,Activity,[4],44%
same,Ki,Adenosine receptor A2a [5],0.32 µM
same,Ki,Adenosine receptor A2a [6],2.89 µM
same,Activity,Mus musculus [7],Toxic
same,Activity,[8],31%
same,Ki,Adenosine receptor A1 [9],> 25 µM
same,Ki,Adenosine receptor A1 [10],> 10 µM
Cn1c(=O)c2c(nc3n2CCCN3CCOC(=O)Nc2ccc(Cl)cc2)n(C)c1=O,Ki,Adenosine receptor A2a [5],> 10 µM
same,Activity,Mus musculus [11],Toxic
same,Activity,[12],32%
same,Activity,[13],24%
same,Ki,Adenosine receptor A1 [9],> 10 µM
Cn1c(=O)c2c(nc3n2CCCN3CCOCc2ccc(Cl)cc2)n(C)c1=O,Ki,Adenosine receptor A2a [5],1.33 µM
same,Activity,[13],48%
same,Ki,Adenosine receptor A1 [9],10 µM
Cn1c(=O)c2c(nc3n2CCCN3CCOC(=O)Nc2cccc(Cl)c2)n(C)c1=O,Ki,Adenosine receptor A2a [5],> 10 µM
same,Activity,[12],33%
same,Activity,[13],10%
same,Ki,Adenosine receptor A1 [9],> 10 µM
Cn1c(=O)c2c(nc3n2CCCN3CCc2c[nH]c3ccccc23)n(C)c1=O,Inhibition,Adenosine receptor A3 [1],21%
same,Activity,[2],56%
same,Ki,Adenosine receptor A2b,10 µM
same,Ki,Adenosine receptor A3 [3],> 10 µM
same,Activity,[4],21%
same,Ki,Adenosine receptor A2a [5],0.33 µM
same,Ki,Adenosine receptor A2a [6],4.56 µM
same,Ki,Adenosine receptor A1 [9],25 µM
same,Ki,Adenosine receptor A1 [10],> 25 µM
COc1ccc(CCN2CCCn3c2nc2c3c(=O)n(C)c(=O)n2C)cc1OC,Ki,Adenosine receptor A2a [5],1.21 µM
same,Activity,[8],33%
same,Ki,Adenosine receptor A1 [9],≥ 25 µM
Cn1c(=O)c2c(nc3n2CCCN3CCOC(=O)Nc2ccccc2)n(C)c1=O,Ki,Adenosine receptor A2a [5],> 10 µM
same,Activity,[12],35%
same,Activity,[13],3%
same,Ki,Adenosine receptor A1 [9],> 10 µM
CCCn1c(=O)c2c(nc3n2CCCN3CCc2ccccc2)n(CCC)c1=O,Ki,Adenosine receptor A2b,0.59 µM
same,Ki,Adenosine receptor A3 [3],3.66 µM
same,Ki,Adenosine receptor A2a [5],0.86 µM
same,Ki,Adenosine receptor A1 [9],0.62 µM
Cn1c(=O)c2c(nc3n2CCCN3CCc2ccc(Cl)cc2)n(C)c1=O,Activity,Mus musculus [14],Toxic
same,Ki,Adenosine receptor A2a [5],0.48 µM
same,Ki,Adenosine receptor A1 [9],6.47 µM
Cn1c(=O)c2c(nc3n2CCCN3CCc2ccc(O)cc2)n(C)c1=O,Inhibition,Adenosine receptor A3 [1],9%
same,Ki,Adenosine receptor A3 [3],> 10 µM
same,Activity,[4],34%
same,Ki,Adenosine receptor A1 [9],25 µM
same,Ki,Adenosine receptor A1 [10],≥ 25 µM
Cc1ccc(OCCN2CCCn3c2nc2c3c(=O)n(C)c(=O)n2C)cc1,Ki,Adenosine receptor A3 [3],> 1 µM
same,Ki,Adenosine receptor A2a [5],4.6 µM
same,Activity,[13],41%
same,Ki,Adenosine receptor A1 [9],10 µM
CC(=O)Nc1ccc(OCCN2CCCn3c2nc2c3c(=O)n(C)c(=O)n2C)cc1,Ki,Adenosine receptor A3 [3],> 1 µM
same,Ki,Adenosine receptor A2a [5],2.02 µM
same,Activity,[13],41%
same,Ki,Adenosine receptor A1 [9],10 µM
Cn1c(=O)c2c(nc3n2CCCN3CC(O)c2ccccc2)n(C)c1=O (configuration not stated),Ki,Adenosine receptor A2a [5],1.11 µM
same,Activity,[8],49%
same,Ki,Adenosine receptor A1 [9],25 µM
Cn1c(=O)c2c(nc3n2CCCN3CCNCc2ccc(F)cc2)n(C)c1=O,Ki,Adenosine receptor A2a [5],14 µM
same,Ki,Adenosine receptor A1 [9],2.63 µM
CC(=O)OC(c1ccccc1)C(C)N1CCCn2c1nc1c2c(=O)n(C)c(=O)n1C (configuration not stated),Ki,Adenosine receptor A2a [5],1.22 µM
Cn1c(=O)c2c(nc3n2CCCN3CCOC(=O)Nc2ccc(F)cc2)n(C)c1=O,Activity,Mus musculus [15],Toxic
same,Ki,Adenosine receptor A2a [5],≥ 10 µM
same,Activity,[12],42%
same,Activity,[13],13%
same,Ki,Adenosine receptor A1 [9],> 10 µM
CC(C(O)c1ccccc1)N1CCCn2c1nc1c2c(=O)n(C)c(=O)n1C (configuration not stated),Ki,Adenosine receptor A2a [5],2.16 µM
same,Activity,[8],45%
same,Ki,Adenosine receptor A1 [9],25 µM
Cn1c(=O)c2c(nc3n2CCCN3CCOCc2ccccc2)n(C)c1=O,Ki,Adenosine receptor A2a [5],3.69 µM
same,Ki,Adenosine receptor A1 [9],3.16 µM
Cn1c(=O)c2c(nc3n2CCCN3CCOc2ccc(Cl)cc2Cl)n(C)c1=O,Ki,Adenosine receptor A2a [5],1.09 µM
same,Ki,Adenosine receptor A1 [9],3.5 µM
COc1ccc(CCN2CCCn3c2nc2c3c(=O)n(C)c(=O)n2C)cc1,Ki,Adenosine receptor A2a [5],0.37 µM
same,Ki,Adenosine receptor A1 [9],3.85 µM
Cn1c(=O)c2c(nc3n2CCCN3CCOc2ccc(Cl)cc2)n(C)c1=O,Activity,[16],45%
same,Activity,[2],44%
same,Ki,Adenosine receptor A2b,10 µM
same,Ki,Adenosine receptor A3 [3],> 1 µM
same,Activity,[17],49%
same,Ki,Adenosine receptor A2a [5],25 µM
same,Ki,Adenosine receptor A1 [9],4.22 µM
CC(=O)OC(CN1CCCn2c1nc1c2c(=O)n(C)c(=O)n1C)c1ccccc1 (configuration not stated),Ki,Adenosine receptor A2a [5],1 µM
same,Activity,[8],50%
Cn1c(=O)c2c(nc3n2CCCN3CCOCc2ccc(F)cc2)n(C)c1=O,Ki,Adenosine receptor A2a [5],3.05 µM
same,Ki,Adenosine receptor A1 [9],3.68 µM
Cn1c(=O)c2c(nc3n2CCCN3CCOC/C=C/c2ccccc2)n(C)c1=O,Ki,Adenosine receptor A3 [3],> 1 µM
same,Ki,Adenosine receptor A2a [5],4.29 µM
same,Activity,[13],36%
same,Ki,Adenosine receptor A1 [9],10 µM
CCCn1c(=O)c2c(nc3n2CCCN3CCc2c[nH]c3ccccc23)n(CCC)c1=O,Ki,Adenosine receptor A3 [3],> 1 µM
same,Ki,Adenosine receptor A2a [5],0.9 µM
same,Ki,Adenosine receptor A1 [9],1.79 µM
Cn1c(=O)c2c(nc3n2CCCN3CCCc2ccccc2)n(C)c1=O,Ki,Adenosine receptor A2a [5],1.1 µM
same,Activity,Mus musculus [18],Toxic
same,Ki,Adenosine receptor A1 [9],1.99 µM
CCCn1c(=O)c2c(nc3n2CCCN3CCc2ccc(OC)c(OC)c2)n(CCC)c1=O,Ki,Adenosine receptor A3 [3],> 1 µM
same,Ki,Adenosine receptor A2a [5],1.33 µM
same,Ki,Adenosine receptor A1 [9],0.82 µM
Cn1c(=O)c2c(nc3n2CCCN3CCNCc2ccccc2)n(C)c1=O,Ki,Adenosine receptor A2b,> 10 µM
same,Activity,[19],27%
same,Ki,Adenosine receptor A2a [5],20 µM
same,Ki,Adenosine receptor A1 [9],7.55 µM
Cn1c(=O)c2c(nc3n2CCCN3CCc2ccccn2)n(C)c1=O,Ki,Adenosine receptor A2b,13.4 µM
same,Ki,Adenosine receptor A3 [3],> 10 µM
same,Activity,[17],37%
same,Ki,Adenosine receptor A2a [5],> 25 µM
same,Ki,Adenosine receptor A1 [9],> 25 µM
